Test results as given in patent publication US10730874B2 (Shire Human Genetic Therapies, Inc., priority 2018, dated 2020).

Target: human activated kallikrein enzyme (plasma kallikrein) (Homo sapiens (Human), UniProt P03952)
Test: Inhibition of human activated plasma kallikrein, fluorogenic peptide substrate assay, 500 pM enzyme format
Format: biochemical
Settings: 500 pM activated kallikrein enzyme, 300 uM Pro-Phe-Arg-7-amido-4-methylcoumarin substrate, 30 min preincubation, 10 min at RT; read-out: Primary Dose Response Assay: Average EC50
Outline: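 Buffer 20 mM Tris pH 7.5, EDTA, NaCl, PEG-400, Triton X-100; 300 uM Pro-Phe-Arg-AMC; enzyme–inhibitor preincubation 30 min RT. Format one: 500 pM kallikrein, 10 min RT reaction; format two: 5 pM kallikrein, 18 h RT reaction. Fluorescence read at 460 nm (380 nm excitation).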

human activated kallikrein enzyme (plasma kallikrein), sequence (P03952 391-638): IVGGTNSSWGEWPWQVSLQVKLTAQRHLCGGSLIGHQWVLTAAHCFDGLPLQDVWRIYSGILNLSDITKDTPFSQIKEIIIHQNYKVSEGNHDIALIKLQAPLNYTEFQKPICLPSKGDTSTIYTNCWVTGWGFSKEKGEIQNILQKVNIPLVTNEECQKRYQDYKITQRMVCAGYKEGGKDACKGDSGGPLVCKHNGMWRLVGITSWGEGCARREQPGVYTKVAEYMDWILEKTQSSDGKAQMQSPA
human activated kallikrein enzyme (plasma kallikrein), sequence (P03952 20-390 partner): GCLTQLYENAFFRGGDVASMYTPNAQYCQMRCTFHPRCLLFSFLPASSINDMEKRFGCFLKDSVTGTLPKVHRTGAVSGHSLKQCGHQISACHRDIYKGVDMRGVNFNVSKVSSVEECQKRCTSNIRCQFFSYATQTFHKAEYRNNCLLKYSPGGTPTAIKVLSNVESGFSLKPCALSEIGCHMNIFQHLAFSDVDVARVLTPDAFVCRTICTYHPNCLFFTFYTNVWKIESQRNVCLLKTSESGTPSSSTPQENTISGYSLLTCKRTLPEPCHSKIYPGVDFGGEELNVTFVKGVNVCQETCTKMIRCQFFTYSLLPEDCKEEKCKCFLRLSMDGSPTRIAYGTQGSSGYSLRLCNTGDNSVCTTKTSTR

EC50 | Structure (SMILES)
< 1 nM | O=C(NCc1ncn2ccc(Cl)cc12)c1cn(Cc2cn3cc(C4CC4)ccc3n2)nc1C1COC1 [Example I-102, N-((7-chloroimidazo[1,5-a]pyridin-1-yl)methyl)-1-((6-cyclopropylimidazo[1,2-a]pyridin-2-yl)methyl)-3-(oxetan-3-yl)-1H-pyrazole-4-carboxamide]
< 1 nM | COCCOc1cc(C2CC2)cn2cc(Cn3cc(C(=O)NCc4ncn5ccc(Cl)cc45)cn3)nc12 [Example I-103, N-((7-chloroimidazo[1,5-a]pyridin-1-yl)methyl)-1-((6-cyclopropyl-8-(2-methoxyethoxy)imidazo[1,2-a]pyridin-2-yl)methyl)-1H-pyrazole-4-carboxamide]
< 1 nM | CC(C)(O)c1cc(C2CC2)cn2cc(Cn3cc(C(=O)NCc4ncn5ccc(Cl)cc45)cn3)nc12 [Example I-104b, N-((7-chloroimidazo[1,5-a]pyridin-1-yl)methyl)-1-((6-cyclopropyl-8-(2-hydroxypropan-2-yl)imidazo[1,2-a]pyridin-2-yl)methyl)-1H-pyrazole-4-carboxamide]
< 1 nM | O=C(O)Cc1cc(C2CC2)cn2cc(Cn3cc(C(=O)NCc4ncn5ccc(Br)c(F)c45)cn3)nc12 [Example I-106, 2-(2-((4-(((7-bromo-8-fluoroimidazo[1,5-a]pyridin-1-yl)methyl)carbamoyl)-1H-pyrazol-1-yl)methyl)-6-cyclopropylimidazo[1,2-a]pyridin-8-yl)acetic acid]
< 1 nM | CC(C)(O)Cc1cc(C2CC2)cn2cc(Cn3cc(C(=O)NCc4ncn5ccc(Cl)cc45)cn3)nc12 [Example I-109, N-((7-chloroimidazo[1,5-a]pyridin-1-yl)methyl)-1-((6-cyclopropyl-8-(2-hydroxy-2-methylpropyl)imidazo[1,2-a]pyridin-2-yl)methyl)-1H-pyrazole-4-carboxamide]
1 to 10 nM | CCOC(=O)C1CC1c1nn(Cc2cn3cc(C4CC4)ccc3n2)cc1C(=O)NCc1ncn2ccc(Cl)cc12 (stereo not drawn) [Example I-113, ethyl 2-(4-(((7-chloroimidazo[1,5-a]pyridin-1-yl)methyl)carbamoyl)-1-((6-cyclopropylimidazo[1,2-a]pyridin-2-yl)methyl)-1H-pyrazol-3-yl)cyclopropane-1-carboxylate]
< 1 nM | O=C(NCc1ncn2ccc(Cl)cc12)c1cnn(Cc2cn3cc(C4CC4)cc(N4CCCC4=O)c3n2)c1 [Example I-114, N-((7-chloroimidazo[1,5-a]pyridin-1-yl)methyl)-1-((6-cyclopropyl-8-(2-oxopyrrolidin-1-yl)imidazo[1,2-a]pyridin-2-yl)methyl)-1H-pyrazole-4-carboxamide]
< 1 nM | CCOC(=O)C1(c2cccn3cc(Cn4cc(C(=O)NCc5ncn6ccc(Cl)cc56)cn4)nc23)CC1 [Example I-115, ethyl 1-(2-((4-(((7-chloroimidazo[1,5-a]pyridin-1-yl)methyl)carbamoyl)-1H-pyrazol-1-yl)methyl)imidazo[1,2-a]pyridin-8-yl)cyclopropane-1-carboxylate]
1 to 10 nM | O=C(NCc1ncn2ccc(Cl)cc12)c1cnn(Cc2cn3cccc(C4(C(=O)O)CC4)c3n2)c1 [Example I-116, 1-(2-((4-(((7-chloroimidazo[1,5-a]pyridin-1-yl)methyl)carbamoyl)-1H-pyrazol-1-yl)methyl)imidazo[1,2-a]pyridin-8-yl)cyclopropane-1-carboxylic acid]
< 1 nM | O=C(NCc1ncn2ccc(Cl)cc12)c1cnn(Cc2cn3cccc(C4(CO)CC4)c3n2)c1 [Example I-117, N-((7-chloroimidazo[1,5-a]pyridin-1-yl)methyl)-1-((8-(1-(hydroxymethyl)cyclopropyl)imidazo[1,2-a]pyridin-2-yl)methyl)-1H-pyrazole-4-carboxamide]
< 1 nM | CC(C)(O)CCc1cc(C2CC2)cn2cc(Cn3cc(C(=O)NCc4ncn5ccc(Cl)cc45)cn3)nc12 [Example I-119, N-((7-chloroimidazo[1,5-a]pyridin-1-yl)methyl)-1-((6-cyclopropyl-8-(3-hydroxy-3-methylbutyl)imidazo[1,2-a]pyridin-2-yl)methyl)-1H-pyrazole-4-carboxamide]
< 1 nM | O=C(NCc1ncn2ccc(Cl)cc12)c1cn(Cc2cn3cc(C4CC4)ccc3n2)nc1C1CC1C(=O)O (stereo not drawn) [Example I-120, 2-(4-(((7-chloroimidazo[1,5-a]pyridin-1-yl)methyl)carbamoyl)-1-((6-cyclopropylimidazo[1,2-a]pyridin-2-yl)methyl)-1H-pyrazol-3-yl)cyclopropane-1-carboxylic acid]
< 1 nM | O=C(NCc1ncn2ccc(Cl)cc12)c1cnn(Cc2cn3cc(C4CC4)ccc3n2)n1 [Example I-121, N-((7-chloroimidazo[1,5-a]pyridin-1-yl)methyl)-2-((6-cyclopropylimidazo[1,2-a]pyridin-2-yl)methyl)-2H-1,2,3-triazole-4-carboxamide]
1 to 10 nM | CC(c1cn2cc(C3CC3)ccc2n1)n1cc(C(=O)NCc2ncn3ccc(Cl)cc23)nn1 (stereo not drawn) [Example I-124, N-((7-chloroimidazo[1,5-a]pyridin-1-yl)methyl)-1-(1-(6-cyclopropylimidazo[1,2-a]pyridin-2-yl)ethyl)-1H-1,2,3-triazole-4-carboxamide]
< 1 nM | CCOC(=O)C1CC1c1cc(C2CC2)cn2cc(Cn3cc(C(=O)NCc4ncn5ccc(Cl)cc45)cn3)nc12 (stereo not drawn) [Example I-127, ethyl 2-(2-((4-(((7-chloroimidazo[1,5-a]pyridin-1-yl)methyl)carbamoyl)-1H-pyrazol-1-yl)methyl)-6-cyclopropylimidazo[1,2-a]pyridin-8-yl)cyclopropane-1-carboxylate]
< 1 nM | N#Cc1cc(C2CC2)cn2cc(Cc3nnc(C(=O)NCc4ncn5ccc(Cl)cc45)o3)nc12 [Example I-128, N-((7-chloroimidazo[1,5-a]pyridin-1-yl)methyl)-5-((8-cyano-6-cyclopropylimidazo[1,2-a]pyridin-2-yl)methyl)-1,3,4-oxadiazole-2-carboxamide]

Structure (SMILES) | EC50
CC(=O)c1cc(C2CC2)cn2cc(Cn3cc(C(=O)NCc4ncn5ccc(Cl)cc45)cn3)nc12 [Example I-104a, 1-((8-acetyl-6-cyclopropylimidazo[1,2-a]pyridin-2-yl)methyl)-N-((7-chloroimidazo[1,5-a]pyridin-1-yl)methyl)-1H-pyrazole-4-carboxamide] | < 1 nM
CCOC(=O)Cc1cc(C2CC2)cn2cc(Cn3cc(C(=O)NCc4ncn5ccc(Br)c(F)c45)cn3)nc12 [Example I-105, ethyl 2-(2-((4-(((7-bromo-8-fluoroimidazo[1,5-a]pyridin-1-yl)methyl)carbamoyl)-1H-pyrazol-1-yl)methyl)-6-cyclopropylimidazo[1,2-a]pyridin-8-yl)acetate] | < 1 nM
O=C(NCc1ncn2ccc(Cl)cc12)c1cnn(Cc2cn3cc(C4CC4)cc(CCCO)c3n2)c1 [Example I-107, N-((7-chloroimidazo[1,5-a]pyridin-1-yl)methyl)-1-((6-cyclopropyl-8-(3-hydroxypropyl)imidazo[1,2-a]pyridin-2-yl)methyl)-1H-pyrazole-4-carboxamide] | < 1 nM
O=C(NCc1ncn2ccc(Cl)cc12)c1nnn(Cc2cn3cc(C4CC4)ccc3n2)n1 [Example I-110, N-((7-chloroimidazo[1,5-a]pyridin-1-yl)methyl)-2-((6-cyclopropylimidazo[1,2-a]pyridin-2-yl)methyl)-2H-tetrazole-5-carboxamide] | < 1 nM
O=C(NCc1ncn2ccc(Cl)cc12)c1cn(Cc2cn3nc(C4CC4)ccc3n2)nn1 [Example I-111, N-((7-chloroimidazo[1,5-a]pyridin-1-yl)methyl)-1-((6-cyclopropylimidazo[1,2-b]pyridazin-2-yl)methyl)-1H-1,2,3-triazole-4-carboxamide] | < 1 nM
N#Cc1cc(C2CC2)cn2cc(Cn3cc(C(=O)NCc4ncn5ccc(Cl)cc45)nn3)nc12 [Example I-112, N-((7-chloroimidazo[1,5-a]pyridin-1-yl)methyl)-1-((8-cyano-6-cyclopropylimidazo[1,2-a]pyridin-2-yl)methyl)-1H-1,2,3-triazole-4-carboxamide] | < 1 nM
C=Cc1ccn2cnc(CNC(=O)c3cnn(Cc4cn5cc(C6CC6)ccc5n4)c3)c2c1 [Example I-118, 1-((6-cyclopropylimidazo[1,2-a]pyridin-2-yl)methyl)-N-((7-vinylimidazo[1,5-a]pyridin-1-yl)methyl)-1H-pyrazole-4-carboxamide] | 1 to 10 nM
O=C(NCc1ncn2ccc(Cl)cc12)c1cnn(Cc2cn3cc(C4CC4)cc(C4(O)COC4)c3n2)c1 [Example I-122, N-((7-chloroimidazo[1,5-a]pyridin-1-yl)methyl)-1-((6-cyclopropyl-8-(3-hydroxyoxetan-3-yl)imidazo[1,2-a]pyridin-2-yl)methyl)-1H-pyrazole-4-carboxamide] | < 1 nM
N#CNC(=NCc1ncn2ccc(Cl)cc12)c1cnn(Cc2cn3cc(C4CC4)ccc3n2)c1 [Example I-123, N′-((7-chloroimidazo[1,5-a]pyridin-1-yl)methyl)-N-cyano-1-((6-cyclopropylimidazo[1,2-a]pyridin-2-yl)methyl)-1H-pyrazole-4-carboximidamide] | 1 to 10 nM
COCCc1cc(C2CC2)cn2cc(Cn3cc(C(=O)NCc4ncn5ccc(Cl)cc45)cn3)nc12 [Example I-125, N-((7-chloroimidazo[1,5-a]pyridin-1-yl)methyl)-1-((6-cyclopropyl-8-(2-methoxyethyl)imidazo[1,2-a]pyridin-2-yl)methyl)-1H-pyrazole-4-carboxamide] | < 1 nM
O=C(NCc1ncn2ccc(Cl)cc12)c1cn(Cc2cn3cc(C4CC4)ccc3n2)nc1Cc1nn[nH]n1 [Example I-126, 3-((2H-tetrazol-5-yl)methyl)-N-((7-chloroimidazo[1,5-a]pyridin-1-yl)methyl)-1-((6-cyclopropylimidazo[1,2-a]pyridin-2-yl)methyl)-1H-pyrazole-4-carboxamide] | < 1 nM
